PubChem BioAssay (NCI)
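Five concentrations, 48 hours, 96-well plates. At the TGI there is no net growth.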

Assays:
Test in all cases: DTP human tumour cell line panel, 48 h
[1] = system: RXF 393 renal
[2] = system: KM12 colon
[3] = system: SK-MEL-5 melanoma
[4] = system: OVCAR-4 ovarian
[5] = system: SN12C renal
[6] = system: HT29 colon
[7] = system: T-47D breast
[8] = system: HCT-116 colon
[9] = system: RPMI-8226 leukemia
[10] = system: MDA-MB-435
[11] = system: U251 CNS
[12] = system: HOP-92 NSCLC
[13] = system: UO-31 renal
[14] = system: OVCAR-3 ovarian
[15] = system: UACC-62 melanoma
[16] = system: COLO 205 colon
[17] = system: NCI-H23 lung
[18] = system: NCI-H460 lung
[19] = system: HL-60(TB) leukemia
[20] = system: SK-MEL-28 melanoma
[21] = system: MDA-MB-231 breast
[22] = system: HOP-62 NSCLC
[23] = system: K-562 leukemia
[24] = system: NCI/ADR-RES ovarian
[25] = system: CAKI-1 renal
[26] = system: A549 NSCLC
[27] = system: TK-10 renal
[28] = system: IGROV1 ovarian
[29] = system: OVCAR-5 ovarian
[30] = system: SF-295 CNS
[31] = system: SF-539 CNS
[32] = system: CCRF-CEM leukemia
[33] = system: BT-549 breast
[34] = system: SNB-75 CNS
[35] = system: MDA-N
[36] = system: DU-145 prostate
[37] = system: MCF7 breast
[38] = system: MALME-3M melanoma
[39] = system: UACC-257 melanoma
[40] = system: SK-MEL-2 melanoma
[41] = system: PC-3 prostate
[42] = system: 786-0 renal
[43] = system: HCC-2998 colon
[44] = system: M14 melanoma
[45] = system: ACHN renal
[46] = system: NCI-H226 lung
[47] = system: NCI-H522 lung
[48] = system: HS 578T breast
[49] = system: EKVX NSCLC
[50] = system: SNB-19 CNS
[51] = system: MOLT-4 leukemia
[52] = system: SK-OV-3 ovarian
[53] = system: SF-268 CNS
[54] = system: HCT-15 colon
[55] = system: SR leukemia
[56] = system: SW-620 colon
[57] = system: A498 renal
[58] = system: OVCAR-8 ovarian
[59] = system: LOX IMVI melanoma

SMILES: CC1Oc2cc3c(-c4c(O)cc(O)c5c(O)c6c(cc45)OC(C)C(C)C6=O)c(O)cc(O)c3c(O)c2C(=O)C1C (stereo not given)
- TGI [1]: 207 nM
- TGI [2]: 1510 nM
- TGI [3]: 461 nM
- TGI [4]: 4980 nM
- TGI [5]: 1120 nM
- TGI [6]: 397 nM
- TGI [7]: 1410 nM
- TGI [8]: 289 nM
- TGI [9]: 469 nM
- TGI [10]: 1160 nM
- TGI [11]: 404 nM
- TGI [12]: 854 nM
- TGI [13]: 1540 nM
- TGI [14]: 816 nM
- TGI [15]: 1340 nM
- TGI [16]: 390 nM
- TGI [17]: 756 nM
- TGI [18]: 163 nM
- TGI [19]: 650 nM
- TGI [20]: 1960 nM
- TGI [21]: 378 nM
- TGI [22]: 1230 nM
- TGI [23]: 627 nM
- TGI [24]: 1390 nM
- TGI [25]: 2360 nM
- TGI [26]: 1290 nM
- TGI [27]: 5450 nM
- TGI [28]: 1300 nM
- TGI [29]: 6320 nM
- TGI [30]: 490 nM
- TGI [31]: 645 nM
- TGI [32]: 148 nM
- TGI [33]: 775 nM
- TGI [34]: 557 nM
- TGI [35]: 1580 nM
- TGI [36]: 10700 nM
- TGI [37]: 3750 nM
- TGI [38]: 1130 nM
- TGI [39]: 1680 nM
- TGI [40]: 331 nM
- TGI [41]: 698 nM
- TGI [42]: 1210 nM
- TGI [43]: 1630 nM
- TGI [44]: 1120 nM
- TGI [45]: 1570 nM
- TGI [46]: 890 nM
- TGI [47]: 1630 nM
- TGI [48]: 459 nM
- TGI [49]: 711 nM
- TGI [50]: 1160 nM
- TGI [51]: 731 nM
- TGI [52]: 1560 nM
- TGI [53]: 2460 nM
- TGI [54]: 1150 nM
- TGI [55]: 429 nM
- TGI [56]: 1520 nM
- TGI [57]: 784 nM
- TGI [58]: 1400 nM

SMILES: CCOC(=O)CCC(NC(=O)Cc1ccc(Nc2nc3ccccc3nc2-c2ccccc2)cc1)C(=O)OCC (stereo not given)
- TGI [1]: 44800 nM
- TGI [2]: > 100000 nM
- TGI [3]: > 100000 nM
- TGI [4]: > 100000 nM
- TGI [5]: > 100000 nM
- TGI [6]: > 100000 nM
- TGI [7]: > 100000 nM
- TGI [8]: > 100000 nM
- TGI [10]: > 100000 nM
- TGI [11]: 78100 nM
- TGI [12]: 45800 nM
- TGI [13]: > 100000 nM
- TGI [15]: > 100000 nM
- TGI [16]: > 100000 nM
- TGI [17]: > 100000 nM
- TGI [18]: > 100000 nM
- TGI [19]: > 100000 nM
- TGI [20]: > 100000 nM
- TGI [21]: 53300 nM
- TGI [22]: > 100000 nM
- TGI [23]: > 100000 nM
- TGI [24]: > 100000 nM
- TGI [25]: > 100000 nM
- TGI [26]: > 100000 nM
- TGI [27]: 58500 nM
- TGI [28]: > 100000 nM
- TGI [29]: > 100000 nM
- TGI [30]: 48400 nM
- TGI [31]: > 100000 nM
- TGI [32]: > 100000 nM
- TGI [33]: > 100000 nM
- TGI [34]: 38300 nM
- TGI [35]: > 100000 nM
- TGI [36]: > 100000 nM
- TGI [37]: > 100000 nM
- TGI [38]: > 100000 nM
- TGI [39]: > 100000 nM
- TGI [40]: 72700 nM
- TGI [41]: > 100000 nM
- TGI [42]: > 100000 nM
- TGI [43]: > 100000 nM
- TGI [44]: > 100000 nM
- TGI [45]: > 100000 nM
- TGI [59]: > 100000 nM
- TGI [46]: > 100000 nM
- TGI [47]: > 100000 nM
- TGI [48]: 74600 nM
- TGI [49]: > 100000 nM
- TGI [50]: > 100000 nM
- TGI [51]: > 100000 nM
- TGI [52]: > 100000 nM
- TGI [53]: 23700 nM
- TGI [54]: > 100000 nM
- TGI [55]: > 100000 nM
- TGI [56]: > 100000 nM
- TGI [57]: > 100000 nM
- TGI [58]: > 100000 nM
